Counter-ions that a name gives are not always drawn.
Legend:
SUCR1 = target: T1, SUCR1 (Homo sapiens, UniProt Q9BXA5); test: Calcium mobilization assay, wild-type SUCR1 in HEK293 stably expressing Gα16; type: cell-based;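 for Emax: percent of the maximal response to succinate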
T1 construct: The full-length human SUCR1 and mutations were fused after the HA signal peptide and Flag tag; HA signal peptide (N); Flag (N); expressed in transfected cells; host or cells: HEK293 stably expressing Gα16 (pcDNA6.0, transient electroporation)
T1 sequence (Q9BXA5 1-334): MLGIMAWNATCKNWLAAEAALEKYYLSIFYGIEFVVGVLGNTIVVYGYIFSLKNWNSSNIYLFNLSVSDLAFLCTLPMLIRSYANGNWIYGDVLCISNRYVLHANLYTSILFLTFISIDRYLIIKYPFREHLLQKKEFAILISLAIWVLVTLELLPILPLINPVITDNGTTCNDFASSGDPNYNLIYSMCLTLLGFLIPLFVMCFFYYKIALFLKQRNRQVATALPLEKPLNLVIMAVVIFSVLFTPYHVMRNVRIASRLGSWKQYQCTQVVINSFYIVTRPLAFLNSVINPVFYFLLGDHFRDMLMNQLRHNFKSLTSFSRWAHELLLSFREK
Experimental: (§1) The full-length human SUCR1 and mutations were fused after the HA signal peptide and Flag tag. The constructs were cloned into pcDNA6.0 vector for HEK293 system.
(§2) HEK293 cells were obtained from ATCC (Manassas, VA, USA) and cultured in DMEM supplemented with 10% (v/v) FBS, 100 mg/L penicillin, and 100 mg/L streptomycin in 5% CO2 at 37 °C. For transient transfection, ~2.5 × 10^6 cells were mixed with 2 µg plasmids in 200 µL transfection buffer, and electroporation was carried out with a Scientz-2C electroporation apparatus (Scientz Biotech, Ningbo, China). The experiments were carried out 24 h after transfection. HEK293 cell lines stably expressing Gα16 were constructed by our laboratory.
(§3) For OXGR1, plasmids were transfected into HEK293 (other receptors were transfected into HEK293 stably expressing Gα16) and seeded at a density of 4 × 10^4 per well into 96-well culture plates and incubated for 24 h at 37 °C in 5% CO2. The next day, Cells were incubated with 2 μM/L Fluo-4 AM in HBSS supplemented with 5.6 mM/L D-glucose and 250 μM/L sulfinpyrazone at 37 °C for 45 min. […] Three independent measurements were repeated, i.e., three different transfections, with three technical replicates performed for each experiment. EC50 and Emax values for each curve were calculated by Prism 8.0 software (GraphPad Software).

[1] = tested on: mock-transfected HEK293 cells; test: Calcium assay in mock-transfected (empty vector) HEK293 cells; type: cell-based
Source text: Figure. R3 | Activity of the compounds on OXGR1 using calcium assays.
Concentration-response curves of the four agonists in activating OXGR1 through the calcium assays. HEK293 cells were transfected with OXGR1 or empty vector by electroporation.
Cells were then loaded with Fluo-4 AM and intracellular calcium changes after stimulation with different compounds were monitored. Responses were normalized to 100% for the maximal response of each compound on OXGR1. Data are mean ± S.E.M. from three independent experiments (n = 3), with three technical replicates performed for each […]
(1 picture or pasted object on this page, not shown here)

[2] = tested on: OXGR1 mutants (variant named in the endpoint); test: Calcium mobilization assay, OXGR1 mutants in HEK293; settings: for Emax: each ligand normalized to WT (100%);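 for all read-outs here: human OXGR1 variants transiently expressed in HEK293 cells, with intracellular calcium read out by Fluo-4 AM fluorescence, measured 24 h after transfection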
Experimental: as §1, §2, §3

OXGR1 = OXGR1 (Homo sapiens, UniProt Q96P68); test: Calcium mobilization assay (Fluo-4 AM), wild-type OXGR1 in HEK293
Experimental: as §1, §2, §3

- Emax (SUCR1; HEK293, SUCR1 WT, Emax relative to the SUC, read-out: Emax): 89 ± 1%
- EC50 (SUCR1; SUCR1 WT): 210 ± 70 µM
- EC50 ([2]; OXGR1 D185A): > 1000 µM
- EC50 ([2]; OXGR1 F113A): > 1000 µM
- EC50 ([2]; OXGR1 F113W): 1000 ± 370 µM
- EC50 ([2]; OXGR1 F257A): > 1000 µM
- EC50 ([2]; OXGR1 F257Y): 1900 ± 300 µM
- EC50 ([2]; OXGR1 H114A): 4200 ± 300 µM
- EC50 ([2]; OXGR1 H114L): > 1000 µM
- EC50 ([2]; OXGR1 I172A): > 1000 µM
- EC50 ([2]; OXGR1 L36A): > 1000 µM
- EC50 ([2]; OXGR1 L89A): > 1000 µM
- EC50 ([2]; OXGR1 L186A): > 1000 µM
- EC50 ([2]; OXGR1 L186F): > 10000 µM
- EC50 ([2]; OXGR1 L299P): > 1000 µM
- EC50 ([2]; OXGR1 M168I): 3200 ± 300 µM
- EC50 ([2]; OXGR1 N28A): 580 ± 30 µM
- EC50 ([2]; OXGR1 R110A): > 1000 µM
- EC50 ([2]; OXGR1 R110E): > 10000 µM
- EC50 ([2]; OXGR1 R110Q): > 1000 µM
- EC50 ([2]; OXGR1 R264A): > 10000 µM
- EC50 ([2]; OXGR1 R268A): > 1000 µM
- EC50 ([2]; OXGR1 R288A): > 1000 µM
- EC50 ([2]; OXGR1 R288E): > 1000 µM
- EC50 ([2]; OXGR1 R288Q): > 1000 µM
- EC50 ([2]; OXGR1 Y40A): > 1000 µM
- EC50 ([2]; OXGR1 Y93A): > 1000 µM
- EC50 ([2]; OXGR1 Y284A): > 1000 µM
- EC50 (OXGR1; EC50, OXGR1 WT, mutant series (Appendix Table S4)): 2000 ± 400 µM
- Emax (OXGR1; HEK293, OXGR1 WT, each ligand normalized to WT (100%)): 100 ± 4%
- activity in OXGR1-transfected HEK293 cells (OXGR1; in words): robust activity
SMILES: O=C(O)/C=C\C(=O)O [MA, maleate]
- activity in mock-transfected cells [1]: no activity
- Emax ([2]; OXGR1 D185A): 11± 3 WT%
- Emax ([2]; OXGR1 E97A): 79± 7 WT%
- Emax ([2]; OXGR1 F113A): 5.1± 10 WT%
- increase in potency by F113W mutation ([2]; OXGR1 F113W versus WT): ~ 2 fold
- Emax ([2]; OXGR1 F113W): 99± 14 WT%
- Emax ([2]; OXGR1 F257A): 6.6± 7 WT%
- Emax ([2]; OXGR1 F257Y): 93± 2 WT%
- Emax ([2]; OXGR1 H114A): 79± 4 WT%
- Emax ([2]; OXGR1 H114L): -4.4± 2 WT%
- Emax ([2]; OXGR1 H281A): 67±4 WT%
- Emax ([2]; OXGR1 I172A): 11± 2 WT%
- Emax ([2]; OXGR1 L36A): 10± 3 WT%
- Emax ([2]; OXGR1 L89A): 6.9± 1 WT%
- Emax ([2]; OXGR1 L186A): 14± 2 WT%
- Emax ([2]; OXGR1 L186F): 58± 4 WT%
- Emax ([2]; OXGR1 L299P): 7.8±3 WT%
- activation of OXGR1 L299P ([2]; OXGR1 L299P, in words): abolished
- Emax ([2]; OXGR1 M168I): 71± 0.9 WT%
- Emax ([2]; OXGR1 N28A): 120± 2 WT%
- Emax ([2]; OXGR1 R110A): -4.4± 2 WT%
- Emax ([2]; OXGR1 R110E): 36± 30 WT%
- Emax ([2]; OXGR1 R110Q): 14± 5 WT%
- Emax ([2]; OXGR1 R177A): 130± 8 WT%
- Emax ([2]; OXGR1 R264A): 54± 5 WT%
- Emax ([2]; OXGR1 R268A): 22± 4 WT%
- Emax ([2]; OXGR1 R288A): -2.1±4 WT%
- Emax ([2]; OXGR1 R288Q): 16±2 WT%
- Emax ([2]; OXGR1 Y40A): -1.9± 6 WT%
- Emax ([2]; OXGR1 Y93A): 17± 20 WT%
- Emax ([2]; OXGR1 Y284A): 4.8±4 WT%
